Like-named read-outs stand apart in the source and are kept apart here.
Assays:
mice = assay: Acute toxicity test; type: in vivo; details: mortality observed for seven days
Protocol: Using three dd strain male mice weighing 20±1 g, a test compound was orally (po; 300 mg/kg) or intraperitoneally (ip; 100 mg/kg) administered. MLD (the minimum lethal dose) was determined by observing the mortality for seven days after administration.

[1] = test system: homologous passive cutaneous anaphylaxis (PCA); assay: Antiallergic activity test: homologous passive cutaneous anaphylaxis (PCA) test for 48 hours using rats; type: in vivo, rat (Wistar strain, male); details: Rattus norvegicus, po, minimum dose with at least one of 3 rats showing PCA inhibition rate 50% or more, read-out: Antiallergic Activity (MED), minimum effective dose
Protocol: Antiallergic activity was examined in accordance with the passive cutaneous anaphylaxis (PCA) test using rats. As test animals, Wistar strain male rats weighing 180 to 220 g were used to collect antiserum and for the PCA test, Wistar strain male rats weighing 120 to 140 g were used.
Anti-EWA rat serum was prepared according to the method of Stotland and Share [Can. J. Physiol. Pharmacol., 52, 1114 (1974)]. That is, 1 mg of EWA was mixed with 20 mg of aluminum hydroxide gel and 0.5 ml of pertussis-diphtberia-tetanus mixed vaccine. The mixture was subcutaneously administered to the rat paw in 4 portions. Fourteen days after, blood was collected from the carotid artery and the serum was isolated and stored in a state frozen at -80° C. Titer of this antiserum to homologous PCA for 48 hours was 1:32.
Three rats were used per group. After the hair at the back was cut, 0.05 ml each of anti-EWA rat serum diluted to 8-fold with physiological saline was intracutaneously injected to each rat at the back in 2 places to passively sensitize the rat. A test compound or its solution (physiological saline solution or CMC solution) was orally administered 47 hours after and 0.5 ml/100 g of 1% Evans Blue physiological saline containing 2 mg of antigen EWA was then intravenously administered to the tail vein an hour after the administration. Thirty minutes later, the animal was bled to death. The skin was peeled off and a leaked dye amount at the blue dyed portion was measured according to the method of Katayama et al. [Microbiol. Immunol., 22, 89 (1978)]. That is, the blue dyed portion was cut off with scissors, put into a test tube charged with 1 ml of 1 N potassium hydroxide and incubated at 37° C. for 24 hours. After 9 ml of a mixture of 0.6 N phosphate:acetone (5:13) was added to the system, the mixture was shaken followed by centrifugation at 2500 rpm for 10 minutes. The absorbancy of the supernatant at 620 nm was measured and the leaked dye amount was quantitatively determined by comparison with a calibration curve previously prepared. A value of one rat was obtained from a mean value of the two portions and an inhibition rate-of each rat was calculated according to the following equation. [formula]
The case showing that the inhibition rate is 50% or more is judged to be positive in the PCA inhibition activity and the minimum dose in which at least one out of 3 rats was recognized to be positive was defined as the minimum effective dose (MED) of the test compound.

TXA2 receptor = biological target: T1, TXA2 receptor (Cavia porcellus, UniProt A0A286Y4I8); assay: Binding study using 3H-U46619 (TXA2 receptor binding activities test); parameters: species or system guinea pig; details: for inhibition at 1 µM: 20 min, test compound 1 μM, 12 nM 3H-U46619, washed guinea pig platelets, 37° C., 20 minutes, read-out: % Inhibition (3H-U46619 binding)
T1 construct: To a washed platelet suspension (1×10^8 platelets) of guinea pig; endogenous in cells; host or cells: washed guinea pig platelets
T1 sequence (A0A286Y4I8 1-347): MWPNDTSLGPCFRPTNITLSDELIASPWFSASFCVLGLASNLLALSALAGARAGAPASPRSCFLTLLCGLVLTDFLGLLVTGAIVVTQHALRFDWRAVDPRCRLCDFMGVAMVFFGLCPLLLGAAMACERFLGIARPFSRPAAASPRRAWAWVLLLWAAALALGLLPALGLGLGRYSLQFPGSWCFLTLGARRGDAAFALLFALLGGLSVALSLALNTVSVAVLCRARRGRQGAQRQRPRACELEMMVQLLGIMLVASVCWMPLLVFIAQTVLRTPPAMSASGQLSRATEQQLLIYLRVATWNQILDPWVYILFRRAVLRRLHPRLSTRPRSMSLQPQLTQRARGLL
Protocol: Receptor binding was determined by a modified method of Kattelman et al. (Thrombosis Research, 41, 471 (1986)].
To a washed platelet suspension (1×10^8 platelets) of guinea pig were added 12 nM of tritium-labeled U46619 (^3 H-U46619; NEN Co., Ltd.) and a test compound (final concentration: 1 μM) solution. After keeping at 37° C. for 20 minutes, the mixture was rapidly filtered through a glass fiber filter paper (GF/C; Whatman). Immediately, the filter paper was washed 5 times with 3 ml of ice-cold 50 mM Tris-hydroxymethylaminomethane buffer (containing 100 mM sodium chloride). The glass fiber filter was transferred to a vial and a scintillator (Ex-H; manufactured by Wako Pure Chemical Industries Co., Ltd.) was added thereto. The radioactivity was determined with a liquid scintillation counter.
It is already known that ^3 H-U46619 is capable of binding with TXA2 receptor (see the publication supra). An inhibitory activity of the test compound against this binding means an ability of binding with the TXA2 receptor. It is also known that a good relationship exists between this binding activity and the anti-platelet activity (TXA2 antagonizing test).
An inhibitory activity (binding activity) of the test compound was calculated by the following equation. [formula]
Amount of the total binding is an amount of ^3 H-U46619-bound radioactivity in the absence of a test compound.
The amount of non-specific binding is used to mean an amount of ^3 H-U46619-bound radioactivity in the presence of 10 μM U-46619.
The amount bound in the presence of a test compound is an amount of ^3 H-U46619-bound radioactivity in the presence of a test compound in various concentrations.

[2] = test system: guinea pig platelets (TXA2/prostaglandin H2 receptor); assay: Test on anti-platelet activity (TXA2 antagonizing test): inhibition of U-46619-induced platelet aggregation; type: cell-based; details: Cavia porcellus, 0.05 h; minimum concentration inhibiting U-46619 (0.5-1 μM)-induced platelet aggregation by 30% or more; guinea pig PRP; read-out: TXA2 Antagonizing Activity (MEC), minimum effective concentration
Protocol: Using guinea pig platelets influence of the compounds in accordance with the present invention on platelet aggregation induced by U-46619 (9,11-dideoxy-9α,11a-methanoepoxyprostaglandin F2 α; manufactured by Cayman Chemica Co., Ltd.) which is a TXA2 /prostaglandin H2 receptor stimulant was examined.
Male guinea pig (Hartley strain; body weight, 300 to 600 g) was anesthesized by intraperitoneal administration of sodium pentobarbital (30 mg/kg) and blood was collected from the descending aorta of the abdomen with a 1/10 volume of sodium citrate. By centrifugation (KC-70: manufactured by Kubota Co., Ltd.) at 800 rpm for 10 minutes, platelet rich plasma (PRP) was collected. Platelet aggregation induced by U-46619 (0.5-1 μM) was determined by photometry [Born, G.V.R. et al., Nature (London), 194, 927-929 (1962)]. A test compound was pretreated 3 minutes prior to aggregation induction and ability of inhibiting aggregation was measured. The minimum concentration for inhibiting platelet aggregation by 30% or more was defined as the minimum effective concentration (MEC) of the test compound.

histamine H1 receptor = biological target: T2, histamine H1 receptor (Cavia porcellus, UniProt P31389); assay: Binding study using 3H-pyrilamine (histamine H1 receptor binding); parameters: species or system guinea pig; details: read-out: (%) Inhibition (3H-pyrilamine binding)
T2 construct: from tissue; host or cells: guinea pig cerebellum membranes
Protocol: Receptor binding was determined by the method of chang et al. [J. Neurochem., 32, 1953 (1979)].
The cerebellum of guinea pig was suspended in a 40-fold amount (V/W) of chilled 50 mM phosphate buffer (pH 7.5) with Polytron Homogenizer (Kinematica Co., Ltd.). The suspension was centrifuged (35,500×g, 10 minutes). The resulting precipitates were resuspended in an equal amount of fresh buffer followed by centrifugation. A 100-fold amount (V/W) of chilled buffer was added to the final precipitates.
To 1 ml of the membrane suspension adjusted as described above were added 50 μl of tritium-labeled pyrilamine (^3 H-pyrilamine; NEN Co., Ltd.) and 50 μl of a test compound. The mixture was allowed to stand at 25° C. for 30 minutes, 4 ml of chilled buffer was added thereto. The mixture was rapidly filtered through a glass fiber filter (GF/C; Whatman). The filter paper was further washed three times with 5 ml of buffer. Hereafter procedures were performed in a manner similar to the TXA2 receptor binding test to determine radioactivity.
An inhibitory activity of the test compound against H1 receptor was calculated by the following equation. [formula]
Amount of the total binding is an amount of ^3 H-pyrilamine-bound radioactivity in the absence of a test compound.
The amount of non-specific binding is an amount of ^3 H-pyrilamine-bound radioactivity in the presence of 3 μM Astemizole (manufactured by Janesen Pharmaceutics).
The amount bound in the presence of a test compound is an amount of ^3 H-pyrilamine-bound radioactivity in the presence of a test compound in various concentrations.

T2 sequence (P31389 whole entry): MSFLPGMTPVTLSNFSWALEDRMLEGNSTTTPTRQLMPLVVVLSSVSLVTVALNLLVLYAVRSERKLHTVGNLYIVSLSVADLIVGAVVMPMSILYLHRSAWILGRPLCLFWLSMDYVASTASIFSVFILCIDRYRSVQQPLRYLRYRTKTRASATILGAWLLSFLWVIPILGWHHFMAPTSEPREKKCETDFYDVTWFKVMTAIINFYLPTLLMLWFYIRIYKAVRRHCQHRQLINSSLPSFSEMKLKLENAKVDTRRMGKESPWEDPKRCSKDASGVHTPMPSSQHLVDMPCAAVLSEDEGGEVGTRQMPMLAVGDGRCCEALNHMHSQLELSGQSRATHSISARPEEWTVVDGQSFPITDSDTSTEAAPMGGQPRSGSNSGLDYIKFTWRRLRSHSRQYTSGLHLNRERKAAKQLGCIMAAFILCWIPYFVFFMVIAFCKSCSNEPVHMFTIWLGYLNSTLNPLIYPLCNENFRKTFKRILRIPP

SMILES	Acute Toxicity (MLD), minimum lethal dose (mice; ip)	Acute Toxicity (MLD), minimum lethal dose (mice; po)	minimal effective dose [1]	inhibition at 1 µM (TXA2 receptor)	minimal effective concentration [2]	inhibition at 1 µM (histamine H1 receptor; test compound 10^-6 M, guinea pig cerebellum membranes, 25° C., 30 minutes)	inhibition at 1 µM (histamine H1 receptor)	inhibitory activity (TXA2 receptor binding), in words (TXA2 receptor; statement in words on Table 4)
O=C(O)COc1ccc(CCNS(=O)(=O)c2ccccc2)cc1 [BM13177, reference compound]	> 100 mg/kg	> 300 mg/kg	> 100 mg/kg	31%	3 µg/mL	0%	–	–
O=C(O)c1ccc2c(c1)C(SCCN1CCN(S(=O)(=O)c3cccs3)CC1)c1ccccc1CO2 (stereo not drawn) [Compound 25b, 11-[2-[4-(2-Thienylsulfonyl)-1-piperazinyl]ethyl]thio-6,11-dihydrodibenz[b,e]oxepin-2-carboxylic acid.0.5 isopropanol.dihydrate]	> 100 mg/kg	> 300 mg/kg	10 mg/kg	78%	3 µg/mL	–	95%	–
CN(C)CCSC1c2ccccc2COc2ccc(C(=O)O)cc21 (stereo not drawn) [Compound (A), reference compound]	–	–	–	-4%	–	–	88%	not observed
O=C(O)c1ccc2c(c1)C(SCCN1CCN(Cc3ccccc3)CC1)c1ccccc1CO2 (stereo not drawn) [Compound 11b, 11-[2-(4-Benzyl-1-piperazinyl)ethyl]thio-6,11-dihydrodibenz[b,e]oxepin-2-carboxylic acid]	> 100 mg/kg	> 300 mg/kg	10 mg/kg	70%	1 µg/mL	–	95%	–
O=C(O)c1ccc2c(c1)C(SCCN1CCN(c3ccccc3)CC1)c1ccccc1CO2 (stereo not drawn) [Compound 1b, 11-[2-(4-Phenyl-1-piperazinyl)ethyl]thio-6,11-dihydrodibenz[b,e]oxepin-2-carboxylic acid]	> 100 mg/kg	> 300 mg/kg	10 mg/kg	–	3 µg/mL	–	68%	–
O=C(O)c1ccc2c(c1)C(SCCN1CCC(Cc3ccccc3)CC1)c1ccccc1CO2 (stereo not drawn) [Compound 38b]	–	–	1 mg/kg	81%	1 µg/mL	–	92%	–

Reference: patent publication US5302602A, “Tricyclic thromboxane A2 antagonists” (Kyowa Hakko Kogyo Co., Ltd., priority 1987, dated 1994)
